Numbered stars: 1 amine (or outer) side, 2 acyl side, 3 side chain; on linkers, the order of the positions; unused ones are H or OH. Bridge positions count the residues as written; N and C are the ends. Square brackets hold non-standard residues; d marks the D form. Peptide text beside a SMILES is read from it. X1 = CC[C@H](C)[C@@H](N[*:1])[C@@H](O)CC(=O)O[C@H](C(=O)[C@H](C)C(=O)[*:2])C(C)C; NMeY = CN[C@@H](Cc1ccc(O)cc1)C(=O)O; dNMeL = CN[C@H](CC(C)C)C(=O)O
Assays:
[1] = Cytotoxicity against mouse NIH/3T3 cells assessed as reduction in cell viability incubated for 4 days by SRB assay; type: toxicity, cell-based, NIH3T3
[2] = Inhibition of EIF1A in human Jurkat cells assessed as reduction in T-cell receptor-mediated IL-2 expression; type: cell-based
[3] = tested on: HCT-116; experiment: Antiproliferative activity against human HCT-116 cells assessed as cell growth inhibition incubated for 24 by 14C-thymidine incorporation assay; type: functional, cell-based
[4] = tested on: A549; experiment: Antiproliferative activity against human A549 cells assessed as cell growth inhibition incubated for 24 by 14C-thymidine incorporation assay; type: functional, cell-based
[5] = tested on: 3T3-L1; experiment: Cytotoxicity against mouse 3T3-L1 adipocyte assessed as inhibition of fat accumulation incubated for 30 mins; type: toxicity, cell-based; conditions: 3T3-L1, 0.5 h
[6] = tested on: HCT-116; experiment: Antiproliferative activity against human HCT-116 cells assessed as cell growth inhibition; type: functional, cell-based
[7] = Inhibition of EIF1A (unknown origin); design: species or system Homo sapiens
[8] = tested on: L1210; experiment: Anticancer activity against mouse L1210 cells allografted in mouse assessed as increase in survival rate; type: functional
[9] = (§1) In vivo activation of dystrophin in mouse H2K mdx cells assessed as increase in production of dystrophin protein; type: functional
[10] = tested on: P388; experiment: Antiproliferative activity against mouse P388 cells assessed as cell growth inhibition incubated for 3 days; type: functional, cell-based; conditions: P388, 72 h
[11] = tested on: P388; experiment: Inhibition of protein synthesis in mouse P388 cells measured after 72 hrs; type: functional, cell-based; conditions: P388, 72 h
[12] = tested on: A549; experiment: Antiproliferative activity against human A549 cells assessed as cell growth inhibition incubated for 3 days; type: functional, cell-based; conditions: A549, 72 h
[13] = tested on: P388; experiment: Inhibition of DNA synthesis in mouse P388 cells measured after 72 hrs; type: functional, cell-based; conditions: P388, 72 h
[14] = tested on: SK-MEL-28; experiment: Antiproliferative activity against human SK-MEL-28 cells assessed as cell growth inhibition incubated for 3 days; type: functional, cell-based; conditions: SK-MEL-28, 72 h
[15] = tested on: P388; experiment: Inhibition of RNA synthesis in mouse P388 cells measured after 72 hrs; type: functional, cell-based
[16] = tested on: HT-29; experiment: Antiproliferative activity against human HT-29 cells assessed as cell growth inhibition incubated for 3 days; type: functional, cell-based; conditions: HT-29, 72 h
[17] = Antiproliferative activity against mouse JB6 Cl 41-5a cells assessed as cell growth inhibition; type: functional, cell-based
[18] = tested on: HeLa; experiment: Antiproliferative activity against human HeLa cells assessed as cell growth inhibition; type: functional, cell-based
[19] = tested on: SARS-CoV-2; experiment: Antiviral activity against SARS-CoV-2 infected in African green monkey Vero E6 cells assessed as inhibition of viral replication; type: functional, organism-based; conditions: Severe acute respiratory syndrome coronavirus 2, Vero C1008
[20] = tested on: SARS-CoV-2; experiment: Antiviral activity against SARS CoV-2 clinical isolate 2019-nCoV infected with African green monkey Vero E6 cells by qRT-PCR analysis; type: functional, organism-based; conditions: Severe acute respiratory syndrome coronavirus 2, 2019-nCoV, Vero C1008
[21] = tested on: HeLa; experiment: Antiproliferative activity against human HeLa cells assessed as cell growth inhibition by [35S] methionine incorporation assay; type: functional, cell-based
[22] = tested on: OCI-AML2; experiment: Antiproliferative activity against human OCI-AML2 cells assessed as cell growth inhibition incubated for 48 hrs by MTS assay; type: functional, cell-based; conditions: OCI-AML2, 48 h
[23] = tested on: NB-4; experiment: Antiproliferative activity against human NB-4 cells assessed as cell growth inhibition incubated for 48 hrs by MTS assay; type: functional, cell-based; conditions: NB-4, 48 h
[24] = tested on: OCI-AML-3; experiment: Antiproliferative activity against human OCI-AML-3 cells assessed as cell growth inhibition incubated for 48 hrs by MTS assay; type: functional, cell-based; conditions: OCI-AML-3, 48 h
[25] = tested on: HL-60; experiment: Antiproliferative activity against human HL-60 cells assessed as cell growth inhibition incubated for 48 hrs by MTS assay; type: functional, cell-based; conditions: HL-60, 48 h
[26] = tested on: U-937; experiment: Antiproliferative activity against human U-937 cells assessed as cell growth inhibition incubated for 48 hrs by MTS assay; type: functional, cell-based; conditions: U-937, 48 h
[27] = tested on: Cystic fibrosis transmembrane conductance regulator (Homo sapiens), P13569 [UNDEFINED MUTATION]; experiment: In vivo activation of human […]-G542X mutant xenografted in mouse model assessed as induction of […] channel expression at 34 mg/kg administered daily; type: functional, organism-based
[28] = tested on: H2K mdx; experiment: as §1; type: functional

Sequence of Cystic fibrosis transmembrane conductance regulator (Homo sapiens), P13569 [UNDEFINED MUTATION] (P13569 whole entry, looked up): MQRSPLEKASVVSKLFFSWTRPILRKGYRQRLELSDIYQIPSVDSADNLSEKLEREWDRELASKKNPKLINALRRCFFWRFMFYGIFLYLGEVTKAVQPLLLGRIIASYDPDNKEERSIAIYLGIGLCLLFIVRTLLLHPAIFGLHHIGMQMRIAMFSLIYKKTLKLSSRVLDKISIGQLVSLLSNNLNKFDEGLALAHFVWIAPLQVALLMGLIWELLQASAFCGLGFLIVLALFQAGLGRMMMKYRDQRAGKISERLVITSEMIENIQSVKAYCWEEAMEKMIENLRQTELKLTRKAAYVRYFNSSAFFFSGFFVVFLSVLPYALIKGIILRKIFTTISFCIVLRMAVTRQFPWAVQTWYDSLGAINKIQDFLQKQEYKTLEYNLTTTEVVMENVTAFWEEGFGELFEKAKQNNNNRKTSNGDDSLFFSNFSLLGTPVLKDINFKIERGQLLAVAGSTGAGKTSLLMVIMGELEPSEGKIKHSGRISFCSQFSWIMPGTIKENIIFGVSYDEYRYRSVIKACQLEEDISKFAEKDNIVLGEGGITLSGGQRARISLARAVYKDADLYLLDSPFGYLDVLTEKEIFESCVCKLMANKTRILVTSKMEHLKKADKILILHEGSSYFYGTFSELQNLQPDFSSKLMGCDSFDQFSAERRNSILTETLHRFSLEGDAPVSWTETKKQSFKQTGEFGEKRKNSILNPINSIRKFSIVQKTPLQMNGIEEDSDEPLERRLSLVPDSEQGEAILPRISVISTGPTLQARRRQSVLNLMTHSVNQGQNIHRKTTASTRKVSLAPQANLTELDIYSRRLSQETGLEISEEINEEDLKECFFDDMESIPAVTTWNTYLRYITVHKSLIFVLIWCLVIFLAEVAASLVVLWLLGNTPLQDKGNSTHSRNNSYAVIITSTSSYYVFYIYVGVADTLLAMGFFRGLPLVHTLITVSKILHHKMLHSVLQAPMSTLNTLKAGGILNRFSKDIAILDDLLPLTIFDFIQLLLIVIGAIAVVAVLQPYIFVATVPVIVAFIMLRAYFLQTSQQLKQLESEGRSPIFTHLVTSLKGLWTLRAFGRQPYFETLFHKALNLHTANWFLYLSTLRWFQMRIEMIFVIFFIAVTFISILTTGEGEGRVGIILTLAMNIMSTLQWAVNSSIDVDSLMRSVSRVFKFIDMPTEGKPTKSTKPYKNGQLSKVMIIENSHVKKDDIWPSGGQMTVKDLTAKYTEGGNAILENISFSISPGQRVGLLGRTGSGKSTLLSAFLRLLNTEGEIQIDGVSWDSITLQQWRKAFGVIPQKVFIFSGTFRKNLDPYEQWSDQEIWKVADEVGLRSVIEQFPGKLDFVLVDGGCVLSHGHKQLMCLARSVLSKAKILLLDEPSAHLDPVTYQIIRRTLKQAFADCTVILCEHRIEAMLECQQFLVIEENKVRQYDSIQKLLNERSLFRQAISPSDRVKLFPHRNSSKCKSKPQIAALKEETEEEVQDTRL

CONC(=O)[C@H]1[C@@H](O)[C@@]2(O)c3c(OC)cc(OC)cc3O[C@@]2(c2ccc(OC)cc2)[C@@H]1c1ccccc1 showed an IC50 at 4 days [1] of 9 nM.
In the case of C/C1=C/C=C\C(=O)O[C@H](/C=C(C)/C=C/C=C/CN(C)C)Cc2csc(n2)CCCCC(=O)O[C@H](C)C1, the IC50 [2] is reported as 0.8 nM.
In the case of COc1ccc([C@@]23Oc4cc(OC)cc(OC)c4[C@@]24NC(C)=N[C@@]4(O)[C@H](C(=O)N(C)OC)[C@H]3c2ccccc2)cc1, the IC50 at 4 days [1] is reported as 2 nM.
With COc1cc(C[C@H]2NC(=O)[C@H](C(C)C)N(C)C(=O)/C=C\C[C@@H](OC)/C(C)=C/C=C/[C@@H](C)[C@@H](c3ccccc3)OC(=O)[C@H](C(C)C)NC2=O)ccc1O the IC50 [3] was 49 nM and the IC50 [4] was 20 nM.
In the case of CC[C@H](C)[C@H]1NC(=O)[C@@H]([C@H](O)C(C)C)NC(=O)[C@@H](C)N(C)C(=O)[C@H](C)N(C)C(=O)[C@H](CC(C)C)NC(=O)[C@H](CC(C)C)N(C)C(=O)[C@H](C)N(C)C1=O, the EC50 [5] is reported as 20 nM and the IC50 [6] is reported as 71 nM.
In the case of CC[C@H](C)[C@H]1NC(=O)[C@@H](NC(=O)[C@@H](CC(C)C)N(C)C(=O)[C@@H]2CCCN2C(C)=O)[C@@H](C)OC(=O)[C@H](Cc2ccc(OC)cc2)N(C)C(=O)[C@@H]2CCCN2C(=O)[C@H](CC(C)C)NC(=O)[C@@H](C)C(=O)[C@H](C(C)C)OC(=O)C[C@@H]1O (Ac-P[dNMeL]T[X1]LP[NMeY](Me); ester 3-C), the IC50 [7] is reported as 100 nM.
Work on CN1C(=O)N[C@H]2[C@@H]3NC(=O)c4ccc(Br)n4[C@@H]3C[C@]21O [AGELASTATIN A] yielded a Survival [8] of 63%.
With O=C(O)c1cccc(-c2noc(-c3ccccc3F)n2)c1 [ATALUREN] the Activity [9] was 20%.
CC[C@H](C)[C@H]1NC(=O)[C@@H](NC(=O)[C@@H](CC(C)C)NC)[C@@H](C)OC(=O)[C@H](Cc2ccc(OC)cc2)N(C)C(=O)[C@@H]2CCCN2C(=O)[C@H](CC(C)C)NC(=O)[C@@H](C)C(=O)[C@H](C(C)C)OC(=O)C[C@@H]1O [DIDEMNIN A] (H-[dNMeL]T[X1]LP[NMeY](Me); ester 2-C) gave an IC50 [10] of 10 nM, an IC50 [11] of 400 nM and an IC50 [12] of 12 nM. The IC50 [13] was 1000 nM, the IC50 [7] was 400 nM and the IC50 [14] was 20 nM. The IC50 ([15]; p388) was “Not Active” and the IC50 [16] was 20 nM.
In the case of C=C1C[C@](OC)([C@H](O)C(=O)N[C@H]2OCO[C@H]3[C@@H]2O[C@H](C[C@H](O)CO)C(C)(C)[C@@H]3OC)O[C@H](C)[C@@H]1C [MYCALAMIDE A], the IC50 [17] is reported as 1 nM and the IC50 [18] is reported as 5 nM.
Work on COC(=O)C[C@](O)(CCCC(C)(C)O)C(=O)O[C@@H]1C(OC)=C[C@]23CCCN2CCc2cc4c(cc2[C@H]13)OCO4 [OMACETAXINE MEPESUCCINATE] yielded an EC50 [19] of 60 nM.
In the case of CC[C@H](C)[C@H]1NC(=O)[C@@H](NC(=O)[C@@H](CC(C)C)N(C)C(=O)[C@@H]2CCCN2C(=O)C(C)=O)[C@@H](C)OC(=O)[C@H](Cc2ccc(OC)cc2)N(C)C(=O)[C@@H]2CCCN2C(=O)[C@H](CC(C)C)NC(=O)[C@@H](C)C(=O)[C@H](C(C)C)OC(=O)C[C@@H]1O [PLITIDEPSIN], the IC50 [10] is reported as 0.2 nM, the IC50 [11] is reported as 500 nM and the IC50 [12] is reported as 0.2 nM. It also gave an IC50 [13] of 100 nM, an IC50 [7] of 500 nM and an IC50 [14] of 0.5 nM. The IC50 ([15]; Mus musculus, P388, 72 h, read-out: IC50) was > 1000 nM and the IC50 [16] was 0.5 nM.
NC(=O)c1ncn([C@@H]2O[C@H](CO)[C@@H](O)[C@H]2O)n1 [RIBAVIRIN] gave an EC50 [20] of 110000 nM.
COc1ccc([C@@]23Oc4cc(OC)cc(OC)c4[C@]2(O)[C@H](O)[C@H](C(=O)N(C)C)[C@H]3c2ccccc2)cc1 [ROCAGLAMIDE] showed an IC50 [21] of 100 nM.
Compound COC(=O)[C@H]1[C@@H](O)[C@@]2(O)c3c(OC)cc(O[C@@H]4O[C@@H]([C@H](O)CO)CO[C@H]4OC)cc3O[C@@]2(c2ccc(OC)cc2)[C@@H]1c1ccccc1 [SILVESTROL] has an IC50 [22] of 4 nM, an IC50 [23] of 4 nM and an IC50 [21] of 20 nM. For the same compound, the IC50 [24] was 4 nM, the IC50 [25] was 4 nM and the IC50 [26] was 4 nM.
GENTAMICIN showed an Activity [27] of 10% and an Activity [28] of 10%.
